Like-named read-outs stand apart in the source and are kept apart here.
Key:
Type in all cases: in vivo, mice
HepG2 tumors = system: HepG2 tumors
Description: (§1) Female athymic nude mice (Harlan Sprague Dawley, Madison, Wis.) were utilized for all experiments. Animals were housed in ventilated rack caging with food and water ad libitum. The mice were acclimated for at least 5 days prior to tumor implantation with a tumor cell suspension.
The tumor model used in these studies was HepG2 cell line, which was obtained from the ATCC (Manassas, Va.).
HepG2 cells were grown in MEM supplemented with 10% FBS, 1.5 g/L sodium bicarbonate, 0.1 mM non-essential amino acids, 1.0 mM sodium pyruvate, and 2 mM L-glutamine. Each animal was implanted SC on the right flank, using a 13G trochar, with 5×10^6 HepG2 cells in a 0.2 mL suspension of 50% Matrigel and 50% serum free medium, without antibiotics. Bacterial cultures were performed on aliquots of the cells prepared for implantation.
Treatments were initiated on DPI 19.
(§2) Tumor size measurements were recorded twice weekly from the treatment initiation until the termination of the study.
(§3) Mean, standard deviation and standard error of the mean were determined for tumor volume for all animal groups at all assessments. Student's t test was performed on tumor volumes at each measurement day, including at the end of the study, to determine whether there were any statistically significant differences between combination treatment groups and single monotherapy treatment groups.

PLC/PRF/5 tumors = system: PLC/PRF/5 tumors
Description: as §1
The tumor model used in these studies was PLC/PRF/5 cell line, which was obtained from the ATCC (Manassas, Va.).
PLC/PRF/5 were grown in Eagle's minimum essential medium supplemented with 10% FBS and 1% L-glutamine. Each animal was implanted SC on the right flank, using a 13G trochar and 1 mL syringe, with 5×10^6 PLC/PRF/5 cells in a 0.2 mL suspension of 50% Matrigel and 50% serum free MEM medium, without antibiotics. Bacterial cultures were performed on aliquots of the cells prepared for implantation.
Treatments were initiated on DPI 14.
as §2, §3

MRI-H-254 tumors = system: MRI-H-254 tumors
Description: Female athymic nude mice (Harlan Sprague Dawley, Madison, Wis.) were utilized for all experiments. Animals were housed in ventilated rack caging with food and water ad libitum. The mice were acclimated for at least 5 days prior to tumor implantation with tumor fragments.
Treatments were initiated on DPI 16.
as §2, §3

NCI-H460 tumors = conditions: alone or with PM00104 0.9 mg/kg/day IV
Description: Female athymic nude mice (Harlan Sprague Dawley, Madison, Wis.) were utilized for all experiments. Animals were housed in ventilated rack caging with food and water ad libitum. The mice were acclimated for at least 5 days prior to tumor implantation.
The tumor model used in this study was NCI-H460 cell line which is a human NSCLC cell line obtained from the ATCC (Manassas, Va.). […] Cells from in vitro passage 7 were implanted SC into study mice using a 1 ml syringe with a 13G trocar: 5×10^6 cells/mouse in 0.2 ml 50% Matrigel/50% RPMI medium of NCI-H460 without serum or antibiotics. Bacterial culture was taken on cells used to implant the study.
Treatments were initiated on DPI 9.
Tumor size measurements were recorded 2-3 times/week from the treatment initiation until the termination of the study.
as §3

[1] = day 19, PM00104 0.90, sorafenib 30 mg/kg/day
[2] = day 22, PM00104 0.90, sorafenib 30 mg/kg/day
[3] = day 22, PM00104 0.90, sorafenib 60 mg/kg/day
[4] = day 26, PM00104 0.90, sorafenib 60 mg/kg/day
[5] = day 30, PM00104 0.90, sorafenib 30 mg/kg/day
[6] = day 30, PM00104 0.90, sorafenib 60 mg/kg/day
[7] = day 33, PM00104 0.90, sorafenib 60 mg/kg/day
[8] = day 14, PM00104 0.90, sorafenib 60 mg/kg/day
[9] = day 25, PM00104 0.90, sorafenib 60 mg/kg/day
[10] = day 28, PM00104 0.90, sorafenib 60 mg/kg/day
[11] = day 32, PM00104 0.90, sorafenib 60 mg/kg/day
[12] = day 39, PM00104 0.90, sorafenib 60 mg/kg/day
[13] = day 42, PM00104 0.90, sorafenib 60 mg/kg/day
[14] = day 20, PM00104 0.90, cisplatin 3, irinotecan 10, paclitaxel 12.5 mg/kg/day
[15] = day 20, PM00104 0.90, cisplatin 5, irinotecan 18, paclitaxel 25 mg/kg/day
[16] = day 23, PM00104 0.90, cisplatin 3, irinotecan 10, paclitaxel 12.5 mg/kg/day
[17] = day 26, PM00104 0.90, cisplatin 3, irinotecan 10, paclitaxel 12.5 mg/kg/day
[18] = day 29, PM00104 0.90, cisplatin 3, irinotecan 10, paclitaxel 12.5 mg/kg/day
[19] = day 40, PM00104 0.90, cisplatin 3, irinotecan 10, paclitaxel 12.5 mg/kg/day
[20] = day 40, PM00104 0.90, cisplatin 5, irinotecan 18, paclitaxel 25 mg/kg/day
[21] = day 48, PM00104 0.90, cisplatin 3, irinotecan 10, paclitaxel 12.5 mg/kg/day
[22] = day 48, PM00104 0.90, cisplatin 5, irinotecan 18, paclitaxel 25 mg/kg/day

CNC(=O)c1cc(Oc2ccc(NC(=O)Nc3ccc(Cl)c(C(F)(F)F)c3)cc2)ccn1 [sorafenib]
% Inhibition (HepG2 tumors; day 19, PM00104 0.60, sorafenib 30 mg/kg/day): −1.4%
% Inhibition (HepG2 tumors; day 19, PM00104 0.60, sorafenib 60 mg/kg/day): 11.2%
% Inhibition (HepG2 tumors; [1]): −1.4%
% T/C (HepG2 tumors; [1]): 101.4%
% Inhibition (HepG2 tumors; day 19, PM00104 0.90, sorafenib 60 mg/kg/day): 11.2%
% Inhibition (HepG2 tumors; day 22, PM00104 0.60, sorafenib 30 mg/kg/day): −23.5%
% Inhibition (HepG2 tumors; day 22, PM00104 0.60, sorafenib 60 mg/kg/day): 21.3%
% Inhibition (HepG2 tumors; [2]): −23.5%
% T/C (HepG2 tumors; [2]): 123.5%
% Inhibition (HepG2 tumors; [3]): 21.3%
% T/C (HepG2 tumors; [3]): 78.7%
% Inhibition (HepG2 tumors; day 26, PM00104 0.60, sorafenib 30 mg/kg/day): 8.7%
% Inhibition (HepG2 tumors; day 26, PM00104 0.60, sorafenib 60 mg/kg/day): 39.9%
% Inhibition (HepG2 tumors; day 26, PM00104 0.90, sorafenib 30 mg/kg/day): 8.7%
% Inhibition (HepG2 tumors; [4]): 39.9%
% T/C (HepG2 tumors; [4]): 60.1%
% Inhibition (HepG2 tumors; day 30, PM00104 0.60, sorafenib 30 mg/kg/day): −0.9%
% Inhibition (HepG2 tumors; day 30, PM00104 0.60, sorafenib 60 mg/kg/day): 38.2%
% Inhibition (HepG2 tumors; [5]): −0.9%
% T/C (HepG2 tumors; [5]): 100.9%
% Inhibition (HepG2 tumors; [6]): 38.2%
% T/C (HepG2 tumors; [6]): 61.8%
% Inhibition (HepG2 tumors; day 33, PM00104 0.60, sorafenib 30 mg/kg/day): 9.6%
% Inhibition (HepG2 tumors; day 33, PM00104 0.60, sorafenib 60 mg/kg/day): 33.8%
% Inhibition (HepG2 tumors; day 33, PM00104 0.90, sorafenib 30 mg/kg/day): 9.6%
% Inhibition (HepG2 tumors; [7]): 33.8%
% T/C (HepG2 tumors; [7]): 66.2%
% T/C (PLC/PRF/5 tumors; day 14, PM00104 0.90, sorafenib 30 mg/kg/day): 99.5%
% Inhibition (PLC/PRF/5 tumors; [8]): 1.5%
% T/C (PLC/PRF/5 tumors; [8]): 98.5%
% Inhibition (PLC/PRF/5 tumors; day 18, PM00104 0.90, sorafenib 60 mg/kg/day): 26.4%
% T/C (PLC/PRF/5 tumors; [2]): 79.5%
% Inhibition (PLC/PRF/5 tumors; [3]): 47.8%
% T/C (PLC/PRF/5 tumors; [3]): 52.2%
% Inhibition (PLC/PRF/5 tumors; [9]): 46.6%
% T/C (PLC/PRF/5 tumors; [9]): 53.4%
% Inhibition (PLC/PRF/5 tumors; [10]): 56.6%
% T/C (PLC/PRF/5 tumors; [10]): 43.4%
% Inhibition (PLC/PRF/5 tumors; [11]): 57.1%
% T/C (PLC/PRF/5 tumors; [11]): 42.9%
% T/C (PLC/PRF/5 tumors; day 35, PM00104 0.90, sorafenib 30 mg/kg/day): 54.7%
% T/C (PLC/PRF/5 tumors; day 35, PM00104 0.90, sorafenib 60 mg/kg/day): 36.5%
% T/C (PLC/PRF/5 tumors; day 39, PM00104 0.90, sorafenib 30 mg/kg/day): 59.3%
% Inhibition (PLC/PRF/5 tumors; [12]): 49.8%
% T/C (PLC/PRF/5 tumors; [12]): 50.2%
% Inhibition (PLC/PRF/5 tumors; [13]): 44.6%
% T/C (PLC/PRF/5 tumors; [13]): 55.4%

CCc1c2c(nc3ccc(OC(=O)N4CCC(N5CCCCC5)CC4)cc13)-c1cc3c(c(=O)n1C2)COC(=O)[C@]3(O)CC [irinotecan]
% Inhibition (MRI-H-254 tumors; day 16, PM00104 0.90, cisplatin 3, irinotecan 10, paclitaxel 12.5 mg/kg/day): 1.6%
% Inhibition (MRI-H-254 tumors; day 16, PM00104 0.90, cisplatin 5, irinotecan 18, paclitaxel 25 mg/kg/day): 1.9%
% Inhibition (MRI-H-254 tumors; [14]): 7.5%
% T/C (MRI-H-254 tumors; [14]): 92.5%
% Inhibition (MRI-H-254 tumors; [15]): 7.9%
% T/C (MRI-H-254 tumors; [15]): 92.1%
% Inhibition (MRI-H-254 tumors; [16]): 7.0%
% T/C (MRI-H-254 tumors; [16]): 93.0%
% Inhibition (MRI-H-254 tumors; day 23, PM00104 0.90, cisplatin 5, irinotecan 18, paclitaxel 25 mg/kg/day): 16.0%
% Inhibition (MRI-H-254 tumors; [17]): 9.8%
% T/C (MRI-H-254 tumors; [17]): 90.2%
% Inhibition (MRI-H-254 tumors; day 26, PM00104 0.90, cisplatin 5, irinotecan 18, paclitaxel 25 mg/kg/day): 25.0%
% Inhibition (MRI-H-254 tumors; [18]): 11.4%
% T/C (MRI-H-254 tumors; [18]): 88.6%
% Inhibition (MRI-H-254 tumors; [19]): 50.8%
% T/C (MRI-H-254 tumors; [19]): 49.2%
% Inhibition (MRI-H-254 tumors; [20]): 59.9%
% T/C (MRI-H-254 tumors; [20]): 40.1%
% Inhibition (MRI-H-254 tumors; [21]): 58.6%
% T/C (MRI-H-254 tumors; [21]): 41.4%
% Inhibition (MRI-H-254 tumors; [22]): 65.1%
% T/C (MRI-H-254 tumors; [22]): 34.9%

CO[C@H]1C[C@@H]2CC[C@@H](C)[C@@](O)(O2)C(=O)C(=O)N2CCCC[C@H]2C(=O)O[C@H]([C@H](C)C[C@@H]2CC[C@@H](OC(=O)C(C)(CO)CO)[C@H](OC)C2)CC(=O)[C@H](C)/C=C(\C)[C@@H](O)[C@@H](OC)C(=O)[C@H](C)C[C@H](C)/C=C/C=C/C=C/1C [temsirolimus]
% T/C on day 9 (NCI-H460 tumors; Temsirolimus 10 mg/kg/day IP): 101.9%
% T/C on day 13 (NCI-H460 tumors; Temsirolimus 10 mg/kg/day IP): 60.4%
% T/C on day 16 (NCI-H460 tumors; Temsirolimus 10 mg/kg/day IP): 55.5%
% T/C on day 21 (NCI-H460 tumors; Temsirolimus 10 mg/kg/day IP): 40.5%
% T/C on day 24 (NCI-H460 tumors; Temsirolimus 10 mg/kg/day IP): 18.9%
% T/C on day 30 (NCI-H460 tumors; Temsirolimus 10 mg/kg/day IP): 22.0%
% T/C on day 38 (NCI-H460 tumors; Temsirolimus 10 mg/kg/day IP): 52.0%
% T/C on day 41 (NCI-H460 tumors; Temsirolimus 10 mg/kg/day IP): 66.4%
% T/C on day 9 (NCI-H460 tumors; Temsirolimus 20 mg/kg/day IP): 104.4%
% T/C on day 13 (NCI-H460 tumors; Temsirolimus 20 mg/kg/day IP): 66.4%
% T/C on day 16 (NCI-H460 tumors; Temsirolimus 20 mg/kg/day IP): 68.4%
% T/C on day 21 (NCI-H460 tumors; Temsirolimus 20 mg/kg/day IP): 46.8%
% T/C on day 24 (NCI-H460 tumors; Temsirolimus 20 mg/kg/day IP): 35.9%
% T/C on day 27 (NCI-H460 tumors; Temsirolimus 20 mg/kg/day IP): 15.9%
% T/C on day 30 (NCI-H460 tumors; Temsirolimus 20 mg/kg/day IP): 23.9%
% T/C on day 38 (NCI-H460 tumors; Temsirolimus 20 mg/kg/day IP): 61.2%
% T/C on day 41 (NCI-H460 tumors; Temsirolimus 20 mg/kg/day IP): 65.2%

Source: patent publication US20110070232A1, “Combination Therapy with an Antitumor Alkaloid” (Pharma Mar, S.A., priority 2008, published 2011)
